Measurements taken from BindingDB's records for doi:10.1039/c4ob00214h (Lanzhou University, 2014).

Tests used:
[1] = molecular target: T1, M-phase inducer phosphatase 2 (Homo sapiens, UniProt P30305)
T1 sequence (P30305 whole entry): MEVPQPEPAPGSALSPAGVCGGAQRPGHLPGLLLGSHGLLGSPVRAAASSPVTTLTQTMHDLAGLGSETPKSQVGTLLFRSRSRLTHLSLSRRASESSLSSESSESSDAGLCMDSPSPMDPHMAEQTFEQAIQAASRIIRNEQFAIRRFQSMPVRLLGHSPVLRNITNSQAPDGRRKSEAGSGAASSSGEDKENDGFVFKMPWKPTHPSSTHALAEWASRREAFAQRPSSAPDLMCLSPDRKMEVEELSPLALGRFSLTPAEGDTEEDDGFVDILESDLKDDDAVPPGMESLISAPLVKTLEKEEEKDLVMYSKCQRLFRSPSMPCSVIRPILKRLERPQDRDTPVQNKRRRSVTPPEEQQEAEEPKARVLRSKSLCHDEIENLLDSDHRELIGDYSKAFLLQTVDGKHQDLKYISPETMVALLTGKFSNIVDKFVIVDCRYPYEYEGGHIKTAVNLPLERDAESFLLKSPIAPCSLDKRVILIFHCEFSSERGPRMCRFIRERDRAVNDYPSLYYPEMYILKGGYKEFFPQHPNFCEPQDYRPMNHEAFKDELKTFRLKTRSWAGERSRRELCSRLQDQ

[2] = molecular target: T2, Tyrosine-protein phosphatase non-receptor type 1 (Homo sapiens, UniProt P18031)
T2 sequence (P18031 whole entry): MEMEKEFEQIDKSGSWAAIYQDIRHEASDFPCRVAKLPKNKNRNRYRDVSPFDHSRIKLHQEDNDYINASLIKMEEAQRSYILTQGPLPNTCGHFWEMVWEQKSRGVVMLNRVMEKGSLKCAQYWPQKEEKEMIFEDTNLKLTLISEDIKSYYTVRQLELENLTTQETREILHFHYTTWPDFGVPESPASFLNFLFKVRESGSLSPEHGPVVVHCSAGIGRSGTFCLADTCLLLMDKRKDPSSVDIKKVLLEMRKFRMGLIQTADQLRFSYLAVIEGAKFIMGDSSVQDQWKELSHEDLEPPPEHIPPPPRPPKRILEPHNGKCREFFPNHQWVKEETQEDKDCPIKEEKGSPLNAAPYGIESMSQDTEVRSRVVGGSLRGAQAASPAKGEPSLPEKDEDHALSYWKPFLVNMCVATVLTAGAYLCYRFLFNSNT

[3] = molecular target: T3, Tyrosine-protein phosphatase non-receptor type 2 (Homo sapiens, UniProt P17706)
T3 sequence (P17706 whole entry): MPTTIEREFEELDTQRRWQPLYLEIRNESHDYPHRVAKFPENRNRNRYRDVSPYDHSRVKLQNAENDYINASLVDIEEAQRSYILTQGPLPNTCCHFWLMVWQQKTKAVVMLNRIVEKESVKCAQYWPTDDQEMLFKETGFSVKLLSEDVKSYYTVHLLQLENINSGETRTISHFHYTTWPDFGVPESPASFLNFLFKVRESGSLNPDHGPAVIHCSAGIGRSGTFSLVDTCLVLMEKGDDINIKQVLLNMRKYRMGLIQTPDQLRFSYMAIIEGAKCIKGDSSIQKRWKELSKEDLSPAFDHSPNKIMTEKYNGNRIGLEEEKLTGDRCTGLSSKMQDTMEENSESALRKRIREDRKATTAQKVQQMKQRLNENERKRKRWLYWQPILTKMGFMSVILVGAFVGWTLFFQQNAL

[4] = molecular target: Tyrosine-protein phosphatase non-receptor type 6 (Homo sapiens, UniProt P29350)
Tyrosine-protein phosphatase non-receptor type 6, sequence (P29350 whole entry): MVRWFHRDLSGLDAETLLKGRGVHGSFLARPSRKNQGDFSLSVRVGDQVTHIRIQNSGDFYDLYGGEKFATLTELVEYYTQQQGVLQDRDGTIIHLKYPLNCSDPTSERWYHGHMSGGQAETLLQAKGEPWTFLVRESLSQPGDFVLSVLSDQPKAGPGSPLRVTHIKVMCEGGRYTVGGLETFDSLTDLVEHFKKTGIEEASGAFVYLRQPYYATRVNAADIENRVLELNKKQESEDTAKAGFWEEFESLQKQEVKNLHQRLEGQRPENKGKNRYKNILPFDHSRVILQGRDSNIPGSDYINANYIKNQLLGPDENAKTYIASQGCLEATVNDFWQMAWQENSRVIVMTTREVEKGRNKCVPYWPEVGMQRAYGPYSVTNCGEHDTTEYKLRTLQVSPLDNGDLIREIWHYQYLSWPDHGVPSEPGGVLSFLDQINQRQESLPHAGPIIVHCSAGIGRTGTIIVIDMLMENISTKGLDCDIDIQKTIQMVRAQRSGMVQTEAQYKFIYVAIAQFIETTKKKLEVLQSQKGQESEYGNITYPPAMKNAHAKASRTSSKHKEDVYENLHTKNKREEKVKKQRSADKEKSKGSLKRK

[5] = molecular target: T4, Tyrosine-protein phosphatase non-receptor type 11 (Homo sapiens, UniProt Q06124)
T4 sequence (Q06124 whole entry): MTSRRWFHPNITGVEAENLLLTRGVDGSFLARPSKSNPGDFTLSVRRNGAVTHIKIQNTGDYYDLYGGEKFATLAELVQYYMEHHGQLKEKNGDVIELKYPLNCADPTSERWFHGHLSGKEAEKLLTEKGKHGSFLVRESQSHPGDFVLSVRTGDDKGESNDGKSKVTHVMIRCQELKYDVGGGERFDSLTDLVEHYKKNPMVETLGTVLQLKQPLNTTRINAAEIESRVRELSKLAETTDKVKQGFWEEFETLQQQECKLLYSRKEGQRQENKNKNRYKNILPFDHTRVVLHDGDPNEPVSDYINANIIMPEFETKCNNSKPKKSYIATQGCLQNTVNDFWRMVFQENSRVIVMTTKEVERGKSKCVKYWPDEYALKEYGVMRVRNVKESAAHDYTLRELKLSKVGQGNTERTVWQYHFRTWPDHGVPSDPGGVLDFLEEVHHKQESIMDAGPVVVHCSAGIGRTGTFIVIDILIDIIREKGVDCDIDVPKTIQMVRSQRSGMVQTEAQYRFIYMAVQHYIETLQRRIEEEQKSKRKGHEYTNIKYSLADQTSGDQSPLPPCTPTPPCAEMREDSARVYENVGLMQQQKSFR

Row | IC50 [1] | IC50 [2] | IC50 [3] | IC50 [4] | IC50 [5] | Structure (SMILES)
1 | 0.2 µM | 0.27 µM | 4.73 µM | 4.41 µM | 1.71 µM | CCCCCCCCCCCCC/C=C/[C@@]12C(=O)O[C@@H](C)[C@@H]1[C@H](C(C)=O)C(C(=O)O)=CC2CCCCCCCCCCCC (stereo partly drawn) [(3S,3aR,4S,7aS)-4-acetyl-7-dodecyl-3-methyl-1-oxo-7a-[(1E)-pentadec-1-en-1-yl]-1,3,3a,4,7,7a-hexahydro-2-benzofuran-5-carboxylic acid (10)]
2 | 2.34 µM | 1.5 µM | 6.01 µM | – | – | CCCCCCCCCCCC/C=C/[C@]12C(=O)O[C@]3(C)O[C@]4(C)OC(=O)C(=C[C@H]1CCCCCCCCCCCC)[C@@H]4[C@@H]32 [Paracaseolide A (13)]
3 | 0.22 µM | 0.27 µM | 2.55 µM | 3.86 µM | 3.13 µM | CCCCCCCCCCCCC/C=C/[C@@]12C(=O)O[C@@H](C)[C@@H]1[C@H](C(C)=O)C(C(=O)O)=C[C@H]2CCCCCCCCCCCC [(3S,3aR,4S,7R,7aS)-4-acetyl-7-dodecyl-3-methyl-1-oxo-7a-[(1E)-pentadec-1-en-1-yl]-1,3,3a,4,7,7a-hexahydro-2-benzofuran-5-carboxylic acid (9)]

Second part, the compound before the results:

Row | Structure (SMILES) | IC50 [1] | IC50 [2] | IC50 [3] | IC50 [4] | IC50 [5]
4 | CCCCCCCCCCCC[C@@H]1C=C2C(=O)O[C@@]3(C)O[C@@]4(C)OC(=O)[C@]1(C=O)[C@H]4[C@@H]23 [(1S,4S,5R,10R,11S,12R)-5-dodecyl-1,10-dimethyl-3,8-dioxo-2,9,13-trioxatetracyclo[8.2.1.0⁴,.0⁷,]tridec-6-ene-4-carbaldehyde (14)] | 8.33 µM | 6 µM | 9.38 µM | – | –
5 | CCCCCCCCCCCC[C@@H]1C=C2C(=O)O[C@@]3(C)O[C@@]4(C)OC(=O)[C@]1(CO)[C@H]4[C@@H]23 [(1R,6R,7S,10S,11R,12S)-6-dodecyl-7-(hydroxymethyl)-1,10-dimethyl-2,9,13-trioxatetracyclo[8.2.1.0⁴,.0⁷,]tridec-4-ene-3,8-dione (15)] | 17 µM | 20.4 µM | 19.8 µM | – | –
6 | CCCCCCCCCCCCC/C=C/[C@@]12C(=O)O[C@@H](C)[C@@H]1[C@H]1C(=CC2CCCCCCCCCCCC)C(=O)O[C@H]1C (stereo partly drawn) [(1R,2S,3S,8R,9S,12S)-8-dodecyl-3,12-dimethyl-9-[(1E)-pentadec-1-en-1-yl]-4,11-dioxatricyclo[7.3.0.0,⁶]dodec-6-ene-5,10-dione (7)] | 3.93 µM | 4.27 µM | 31.8 µM | – | –
7 | CCCCCCCCCCCC/C=C/[C@@]12C(=O)O[C@@H](C)[C@@H]1[C@H]1C(=C[C@H]2CCCCCCCCCCCC)C(=O)O[C@H]1C [(1R,2S,3S,8R,9S,12S)-8-dodecyl-3,12-dimethyl-9-[(1E)-tetradec-1-en-1-yl]-4,11-dioxatricyclo[7.3.0.0,⁶]dodec-6-ene-5,10-dione (6)] | 2.34 µM | 3.25 µM | 13.2 µM | – | –
